Test results taken from ChEMBL document CHEMBL1133098, “Subtype-selective N-methyl-D-aspartate receptor antagonists: benzimidazalone and hydantoin as phenol replacements” (J Med Chem, 2000).

Tests used:
Format in all cases: cell-based, Oocyte
[1] = biological target: Glutamate receptor ionotropic, NMDA 2C (Rattus norvegicus, UniProt P35439+Q00961); test: In vitro inhibition of NMDA responses at NR1A/2C receptor expressed in Xenopus oocytes
[2] = biological target: Glutamate NMDA receptor; Grin1/Grin2a (Rattus norvegicus, UniProt P35439+Q00959); test: In vitro inhibition of NMDA responses at NR1A/2A receptor expressed in Xenopus oocytes
[3] = biological target: Glutamate NMDA receptor; Grin1/Grin2b (Rattus norvegicus, UniProt P35439+Q00960); test: In vitro inhibition of NMDA responses at NR1A/2B receptor expressed in Xenopus oocytes
Glutamate NMDA receptor; Grin1/Grin2b, sequence (Q00960 whole entry, looked up, other chains not shown): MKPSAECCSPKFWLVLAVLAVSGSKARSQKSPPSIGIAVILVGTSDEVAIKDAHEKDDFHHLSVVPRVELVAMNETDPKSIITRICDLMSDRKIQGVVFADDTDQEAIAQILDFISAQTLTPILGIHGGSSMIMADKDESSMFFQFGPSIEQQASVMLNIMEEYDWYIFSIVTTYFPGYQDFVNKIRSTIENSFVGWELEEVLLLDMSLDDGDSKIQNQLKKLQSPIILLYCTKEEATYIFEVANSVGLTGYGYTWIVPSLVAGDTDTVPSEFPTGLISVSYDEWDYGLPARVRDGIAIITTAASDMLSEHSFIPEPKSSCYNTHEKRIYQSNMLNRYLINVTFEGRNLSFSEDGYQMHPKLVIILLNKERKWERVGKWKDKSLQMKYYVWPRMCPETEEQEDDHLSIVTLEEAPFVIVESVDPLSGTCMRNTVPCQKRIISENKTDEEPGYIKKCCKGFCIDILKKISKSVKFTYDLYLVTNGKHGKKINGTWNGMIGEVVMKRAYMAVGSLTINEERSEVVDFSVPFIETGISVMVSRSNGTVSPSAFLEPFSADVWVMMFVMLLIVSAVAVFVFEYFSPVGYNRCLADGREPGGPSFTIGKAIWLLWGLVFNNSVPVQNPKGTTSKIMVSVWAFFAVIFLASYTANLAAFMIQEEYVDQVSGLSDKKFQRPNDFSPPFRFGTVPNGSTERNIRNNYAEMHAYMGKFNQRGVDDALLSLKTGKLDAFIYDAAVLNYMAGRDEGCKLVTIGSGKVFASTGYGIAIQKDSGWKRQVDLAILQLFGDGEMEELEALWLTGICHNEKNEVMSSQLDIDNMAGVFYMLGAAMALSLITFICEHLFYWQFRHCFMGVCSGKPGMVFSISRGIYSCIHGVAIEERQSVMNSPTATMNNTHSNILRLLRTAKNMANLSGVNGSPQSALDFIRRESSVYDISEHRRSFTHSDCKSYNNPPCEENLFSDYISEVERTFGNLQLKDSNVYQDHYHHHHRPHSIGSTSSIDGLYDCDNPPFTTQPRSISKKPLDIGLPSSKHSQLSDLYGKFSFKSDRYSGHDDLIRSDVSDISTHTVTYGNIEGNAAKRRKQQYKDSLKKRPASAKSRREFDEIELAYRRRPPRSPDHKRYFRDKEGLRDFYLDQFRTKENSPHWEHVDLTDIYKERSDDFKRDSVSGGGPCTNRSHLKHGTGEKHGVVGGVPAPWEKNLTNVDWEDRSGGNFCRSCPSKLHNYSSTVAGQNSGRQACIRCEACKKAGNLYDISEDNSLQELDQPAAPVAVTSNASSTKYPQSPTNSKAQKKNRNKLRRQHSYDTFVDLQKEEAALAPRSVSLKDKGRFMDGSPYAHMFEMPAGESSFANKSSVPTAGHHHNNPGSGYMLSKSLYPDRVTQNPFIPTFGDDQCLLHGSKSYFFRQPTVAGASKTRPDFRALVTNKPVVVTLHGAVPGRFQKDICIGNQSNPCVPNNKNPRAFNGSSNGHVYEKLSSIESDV

Glutamate receptor ionotropic, NMDA 2C, sequence (Q00961 whole entry, one chain of several): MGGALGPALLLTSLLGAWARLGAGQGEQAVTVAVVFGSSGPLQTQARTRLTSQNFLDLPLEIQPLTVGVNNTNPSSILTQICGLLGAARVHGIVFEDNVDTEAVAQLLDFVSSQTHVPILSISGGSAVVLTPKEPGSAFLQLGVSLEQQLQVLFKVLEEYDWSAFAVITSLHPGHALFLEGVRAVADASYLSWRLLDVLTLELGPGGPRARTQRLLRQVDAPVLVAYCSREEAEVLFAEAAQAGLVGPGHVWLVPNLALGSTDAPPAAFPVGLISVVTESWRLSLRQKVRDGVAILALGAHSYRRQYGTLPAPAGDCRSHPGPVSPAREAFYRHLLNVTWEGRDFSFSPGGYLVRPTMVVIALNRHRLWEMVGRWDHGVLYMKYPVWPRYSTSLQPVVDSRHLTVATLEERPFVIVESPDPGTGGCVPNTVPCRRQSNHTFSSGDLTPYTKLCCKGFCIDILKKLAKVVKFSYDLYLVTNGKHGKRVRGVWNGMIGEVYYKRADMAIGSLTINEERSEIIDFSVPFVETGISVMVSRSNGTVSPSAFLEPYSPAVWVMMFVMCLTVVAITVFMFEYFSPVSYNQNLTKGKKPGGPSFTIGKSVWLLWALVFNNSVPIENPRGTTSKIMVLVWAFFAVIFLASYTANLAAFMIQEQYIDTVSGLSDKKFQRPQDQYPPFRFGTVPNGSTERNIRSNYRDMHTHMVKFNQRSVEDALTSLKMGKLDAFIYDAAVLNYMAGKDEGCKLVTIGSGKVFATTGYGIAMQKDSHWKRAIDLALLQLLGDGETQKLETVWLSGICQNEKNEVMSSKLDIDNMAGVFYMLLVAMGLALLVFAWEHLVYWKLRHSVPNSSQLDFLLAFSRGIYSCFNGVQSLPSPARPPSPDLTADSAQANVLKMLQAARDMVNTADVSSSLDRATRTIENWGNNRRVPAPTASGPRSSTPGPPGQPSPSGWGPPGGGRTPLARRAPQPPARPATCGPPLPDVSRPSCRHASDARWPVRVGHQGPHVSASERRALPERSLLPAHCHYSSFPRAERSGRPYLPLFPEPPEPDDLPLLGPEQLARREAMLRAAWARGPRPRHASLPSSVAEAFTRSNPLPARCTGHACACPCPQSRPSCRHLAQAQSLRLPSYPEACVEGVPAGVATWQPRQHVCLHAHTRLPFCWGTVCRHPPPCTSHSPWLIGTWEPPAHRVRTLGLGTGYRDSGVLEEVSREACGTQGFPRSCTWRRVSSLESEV
Glutamate NMDA receptor; Grin1/Grin2a, sequence (Q00959 whole entry, looked up, other chains not shown): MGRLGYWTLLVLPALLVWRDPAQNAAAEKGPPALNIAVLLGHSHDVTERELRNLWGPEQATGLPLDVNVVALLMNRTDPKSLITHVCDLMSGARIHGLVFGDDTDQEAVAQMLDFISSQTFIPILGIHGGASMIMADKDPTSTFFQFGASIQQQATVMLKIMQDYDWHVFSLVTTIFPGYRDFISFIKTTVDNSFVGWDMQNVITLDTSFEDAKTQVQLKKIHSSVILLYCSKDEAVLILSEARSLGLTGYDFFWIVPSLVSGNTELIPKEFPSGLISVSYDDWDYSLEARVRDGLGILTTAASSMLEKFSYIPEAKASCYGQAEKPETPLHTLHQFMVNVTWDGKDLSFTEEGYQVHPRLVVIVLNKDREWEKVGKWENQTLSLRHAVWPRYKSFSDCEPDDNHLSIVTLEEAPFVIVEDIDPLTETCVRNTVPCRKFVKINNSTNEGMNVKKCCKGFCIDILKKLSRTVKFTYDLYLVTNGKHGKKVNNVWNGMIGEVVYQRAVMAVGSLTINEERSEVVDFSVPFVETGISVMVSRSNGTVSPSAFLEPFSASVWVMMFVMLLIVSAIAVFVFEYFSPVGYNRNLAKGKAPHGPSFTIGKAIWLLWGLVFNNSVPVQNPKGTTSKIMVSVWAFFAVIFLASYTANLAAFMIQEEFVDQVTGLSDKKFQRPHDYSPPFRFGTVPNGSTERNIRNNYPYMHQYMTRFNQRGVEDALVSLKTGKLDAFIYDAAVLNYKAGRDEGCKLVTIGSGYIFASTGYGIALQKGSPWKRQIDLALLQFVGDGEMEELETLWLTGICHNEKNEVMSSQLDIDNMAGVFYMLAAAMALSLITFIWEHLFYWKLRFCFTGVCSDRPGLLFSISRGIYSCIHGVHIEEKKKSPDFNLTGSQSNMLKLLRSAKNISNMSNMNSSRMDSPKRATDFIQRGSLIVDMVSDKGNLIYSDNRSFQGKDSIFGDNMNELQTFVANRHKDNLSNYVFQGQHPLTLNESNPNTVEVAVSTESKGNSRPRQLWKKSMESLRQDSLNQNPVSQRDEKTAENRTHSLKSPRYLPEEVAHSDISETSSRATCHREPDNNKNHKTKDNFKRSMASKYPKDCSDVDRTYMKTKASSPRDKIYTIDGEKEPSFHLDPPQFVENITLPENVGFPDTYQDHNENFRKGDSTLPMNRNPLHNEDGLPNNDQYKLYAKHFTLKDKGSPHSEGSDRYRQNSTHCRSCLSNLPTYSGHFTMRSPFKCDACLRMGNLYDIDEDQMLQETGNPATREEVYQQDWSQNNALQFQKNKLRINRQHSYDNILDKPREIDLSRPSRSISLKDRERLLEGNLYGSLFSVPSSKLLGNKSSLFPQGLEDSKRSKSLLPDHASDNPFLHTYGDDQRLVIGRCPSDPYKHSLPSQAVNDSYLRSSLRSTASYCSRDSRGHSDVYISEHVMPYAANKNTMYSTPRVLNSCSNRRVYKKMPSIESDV

| IC50 [1] [µM] | IC50 [2] [µM] | IC50 [3] [µM] | Compound |
| --- | --- | --- | --- |
| > 100 | > 100 | 3.4 | Oc1nc2ccccc2n1CCCCN1CCC(Cc2ccccc2)CC1 |
| > 100 | > 100 |  | Oc1ccc(OCCN2CCC(Cc3ccccc3)CC2)cc1 |
| > 100 | > 100 | 0.095 | O=c1[nH]c2ccccc2n1CCCN1CCC(Cc2ccccc2)CC1 |
| > 100 | > 100 | 10 | O=C1CNC(=O)N1CCCCN1CCC(Cc2ccccc2)CC1 |
| > 100 | 88 | 49 | O=C1CNC(=O)N1CCCCCN1CCC(Cc2ccccc2)CC1 |
| > 100 | > 100 | 0.11 | O=c1[nH]c2ccccc2n1CCCN1CCC(Cc2ccc(F)cc2)CC1 |
| > 100 | > 100 | 11 | O=c1[nH]c2ccccc2n1CCCCCN1CCC(Cc2ccccc2)CC1 |
| > 100 | > 100 | 27 | O=C1CNC(=O)N1CCCN1CCC(Cc2ccccc2)CC1 |
